Measured values taken from patent publication US10611797B2, “Peptide having anticancer activity, and pharmaceutical composition and dietary supplement composition for preventing and treating cancer, both of which contain same as active ingredient” (IUCF-HYU (INDUSTRY-UNIVERSITY COOPERATION FOUNDATION …, priority 2015, dated 2020).
Read-outs that look alike come from different tables or passages of the source.

Tests used:
[1] = tested on: cancer cell lines (HepG2, Hep3B, 293T, MCF-7, MDA-MB-231, K562, HEL, HL60, U251, U373MG, U87MG); assay: Microscopic observation of growth inhibition and apoptosis, cancer cell lines; assay type: cell-based, human; settings: 2 μM, 48 h
Description: (§1) Liver cancer cell lines (HepG2, Hep3B), a human embryonic kidney cell line (293T), breast cancer cell lines (MCF-7, MDA-MB-231), blood tumor cell lines (K562, HEL, HL60), glioblastoma cell lines (U251, U373MG, U87MG), a mammary epithelial cell line (MCF10A), a lung epithelial cell line (BEAS2B), human mesenchymal stem cells (hMSCs), and mouse primary T cells (resting and activated T cells) were inoculated into 96-well plates at a density of 3,000 cells/well, supplemented with 50 μl of culture solution, and cultured at 37° C. and 5% CO2 for 1 h. […] After completion of the culture, cells were observed under an inverted phase contrast microscope and their morphological changes were imaged.

MCF10A cell line = assay: Electron microscopy of cell morphology, MCF10A; settings: 2 μM, 24 and 48 h
Description: 1.5×10^6 cells of MDA-MB-231 cell line and 5×10^5 cells of MCF10A cell line were inoculated into 100 mm dishes. […] After culture for 24 and 48 h, cells were collected. The culture solution was centrifuged and surface adherent cells were collected by trypsin treatment. The collected cells were washed once with physiological saline. The cell sediment was directly treated twice with 2.5% aqueous glutaraldehyde solution (each for 10 min). Samples for electron microscopy were prepared and imaged in accordance with general methods.

[2] = tested on: human mesenchymal stem cells (hMSC); assay: MTT cell viability, human mesenchymal stem cells; settings: increasing concentrations
[3] = tested on: BEAS2B and MCF10A normal epithelial cell lines; assay: MTT cell viability / IC50, normal epithelial control cell lines
Description: (§2) Liver cancer cell lines (HepG2, Hep3B) were inoculated into 96-well plates at a density of 3000 cells/well, and then 50 μl of culture solution was added thereto. Cells were cultured at 37° C. and 5% CO2 for 1 h. […] Cells were cultured at 37° C. and 5% CO2 for 24, 48, 72, and 96 h. After completion of the culture, the remaining culture solution was removed from the well plates, the cultures were diluted with MTT solution (3-(4,5-dimethylthiazol-2-yl)-2,5-diphenyltetrazole bromide) to a final density of 500 μg/ml, and cells were cultured at 37° C. and 5% CO2 for 3 h. The remaining MTT solution was removed and 150 μl of dimethyl sulfoxide (DMSO) was added. The reaction was carried out at room temperature for 20 min. After completion of the reaction, absorbance was measured using a microplate reader.

[4] = tested on: human embryonic stem cells (hESCs, H9); assay: MTT cell viability, human embryonic stem cells co-cultured with MEFs; settings: increasing concentrations; co-culture with MEFs
Description: MEF cells labeled with rhodamine were often used to distinguish them from hESC-derived cells.

[5] = tested on: normal cell lines (MCF10A, BEAS2B, hMSCs, mouse primary T cells); assay: Microscopic observation of growth inhibition and apoptosis, normal cell lines; settings: 2 μM, 48 h
Description: as §1

MDA-MB-231 cell line = assay: MTT assay of FITC-conjugated peptides in MDA-MB-231; assay type: cell-based, human; settings: 0, 0.5, 1, 2, 3, 10 μM, 96 h
CP2c [6] = molecular target: T1, CP2c (Mus musculus, UniProt Q9ERA0); assay: DNA immunoprecipitation (DIP) assay of CP2c-DNA binding; settings: 0.2, 0.5, and 1 μg peptide; MEL nuclear extract; α-globin promoter probe
T1 construct: 5 μg of the nuclear extract and an [α-32p] dCTP-labeled DNA probe; endogenous in cells; host or cells: MEL (murine erythroid leukemia) cells, HMBA-differentiated, nuclear extract
T1 sequence (Q9ERA0 1-502): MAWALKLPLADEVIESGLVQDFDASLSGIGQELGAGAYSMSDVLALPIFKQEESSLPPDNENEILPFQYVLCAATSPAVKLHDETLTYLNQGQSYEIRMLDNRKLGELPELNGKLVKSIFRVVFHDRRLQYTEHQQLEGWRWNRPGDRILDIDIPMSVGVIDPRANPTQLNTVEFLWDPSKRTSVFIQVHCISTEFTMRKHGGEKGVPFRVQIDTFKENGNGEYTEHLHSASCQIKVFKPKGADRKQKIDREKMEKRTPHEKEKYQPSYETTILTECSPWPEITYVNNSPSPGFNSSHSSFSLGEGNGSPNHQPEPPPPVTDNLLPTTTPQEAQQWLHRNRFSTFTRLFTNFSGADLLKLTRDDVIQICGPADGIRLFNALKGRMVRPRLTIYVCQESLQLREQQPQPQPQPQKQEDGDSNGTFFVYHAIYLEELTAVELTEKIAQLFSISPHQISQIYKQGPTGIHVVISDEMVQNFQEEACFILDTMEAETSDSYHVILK
Description: To analyze whether the five peptides identified in Example 1.1 bind to CP2c in cells to affect the ability of CP2c to bind to DNA, DNA immunoprecipitation (DIP) assay was performed as disclosed in another preceding research conducted by the present inventors (Kim et al., A DNA immunoprecipitation assay used in quantitative detection of in vitro DNA-protein complex binding, Analytical Biochemistry. 2013; 441: 147-151).
In summary, the differentiation of a murine erythroid leukemia (MEL) cell line was induced by treatment with 5 mM hexamethylene bisacetamide (HMBA) and, on day 2 after differentiation, a cellular nuclear extract was separated. […]
Subsequently, 5 μg of the nuclear extract and an [α-32p] dCTP-labeled DNA probe (a sequence corresponding to the common CP2c binding site present in mouse α-globin promoter and between −156 and −124 in the start codon of the α-globin gene, see the paper of Kim et al. for details of the sequence) were allowed to react with a binding buffer (4% glycerol, 10 mM Tris-HCl, 1 mM DTT, 1 mM EDTA, and 0.1% NP-40) for 15 min, and gradually increasing amounts (0.2, 0.5, and 1 μg) of the identified CP2c binding peptides (Peptide 5, Peptide 8, Peptide 13, Peptide 21, and Peptide 31) were added thereto. […] The CP2c protein was removed from the DNA probe and the remaining amount of the DNA probe was measured using a scintillation counter. […]

CP2c [7] = assay: Direct ELISA of GST-fusion mutant CP2c proteins binding to peptide; settings: 19 Ala mutants of CP2c 306-396 region; detected with biotin-tagged Peptide 5-2CB
Excerpt: To support this assumption, a CP2c protein region with which Peptide 5-2C interacts and amino acids in the region directly binding to Peptide 5-2C need to be identified. Thus, an attempt was made to obtain mutant CP2c proteins in which polar amino acids present in the CP2c region binding with Peptide 5 shown in FIG. 1 were substituted with Ala and analyze the binding of the mutant CP2c proteins with Peptide 5-2C by enzyme-linked immunosorbent assay (ELISA). To facilitate this analysis, Peptide 5-2CB was synthesized in which biotin tag is bonded to the C-terminal Pro residue of Peptide 5-2C. To confirm whether Peptide 5-2CB induces cancer cell-specific growth interruption and apoptosis, like Peptide 5-2C, MTT assay was conducted on two different batches of Peptide 5-2CB in MDA-MB-231 cell line and MCF7 cell line by the same method as in Example 5.1. IC50 values were also calculated from the results of MTT assay. To obtain 19 mutant CP2c proteins in which polar amino acids present in the CP2c region binding with Peptide 5-2C were substituted with Ala, oligonucleotides having sequences encoding the corresponding mutant amino acids were synthesized and site-directed mutagenesis was carried out. The base sequences encoding the mutant CP2c genes were cloned into the pGEX4 vector and mutant GST-fusion CP2c proteins were purified using beads bound with antibody against GST-tag. […]

[8] = tested on: breast cancer cell lines (MCF7, MDA-MB-231); assay: MTT cell viability, breast cancer cell lines; assay type: cell-based, human; settings: increasing concentrations
Description: as §2

[9] = tested on: glioblastoma cell lines (U343, U87MG); assay: MTT cell viability with Peptide 5-2D, glioblastoma cell lines; assay type: cell-based, human; settings: increasing concentrations
Description: as §2

[10] = tested on: colon cancer cell lines (HCT116, HT29); assay: MTT cell viability with Peptide 5-2D, colon cancer cell lines; assay type: cell-based, human; settings: increasing concentrations
Description: as §2

[11] = tested on: 293T and HepG2 cell lines; assay: MTT cell viability with Peptide 5-2D, 293T and HepG2; assay type: cell-based, human; settings: increasing concentrations
Description: as §2

[12] = tested on: human blood cancer cell lines (U937, Jurkat, HL60, HEL); assay: MTT cell viability with Peptide 5-2D, human blood cancer cell lines; assay type: cell-based; settings: increasing concentrations
Description: as §2

[13] = tested on: BEAS2B and MCF10A normal epithelial cell lines
Description: as §2

CCOc1ccccc1C1CC(=O)Nc2cc3c(cc21)OCO3 (centres unmarked) [FQI1, Factor Quinolinone Inhibitor 1]
growth inhibition and apoptosis induction of cancer cell lines (microscopy) [1]: inhibited the growth of the normal cell lines as well as the cancer cell lines in a concentration-dependent manner and induced apoptosis | intracellular structural abnormalities in MCF10A (electron microscopy) (MCF10A cell line): considerable nuclear disruption was observed at 48 h | cytotoxicity (MTT) in hMSC [2]: concentration-dependent cytotoxicity | growth inhibition and apoptosis induction of normal control cell lines (IC50 calculation) ([3]; 48 h, MTT): inhibited cell growth and induced apoptosis | cytotoxicity (MTT) in MCF10A and BEAS2B ([3]; increasing concentrations up to 10 μM): concentration-dependent cytotoxicity | cytotoxicity (MTT) in hESCs [4]: concentration-dependent cytotoxicity | effect on normal cell lines (microscopy) [5]: inhibited the growth of the normal cell lines

FITC-iRGD: FITC fluorescently labeled iRGD peptide (CRGDKGPDC)
cell growth (MTT) in MDA-MB-231 (MDA-MB-231 cell line): only the FITC-conjugated Peptide 5-2C inhibited cell growth

NYPQRP [Peptide 5-2]
inhibition of CP2c-DNA binding (DIP assay) (CP2c [6]): specifically inhibited the binding between CP2c and DNA | CP2c amino acids important for peptide binding (CP2c [7]): E332, R339, R341 and R347 amino acid are important for binding to Peptide 5-2

dNP2 peptide sequence (KIKKVKKKGRKGSKIKKVKKKGRKGG) linked to the N-terminal Asn residue of Peptide 5-2 [Peptide 5-2D]
relative viability (MTT), breast cancer cell lines, compared with Peptide 5-2C [8]: inhibited the growth of the breast cancer cell lines and efficiently induced apoptosis, similarly to Peptide 5-2C | relative viability (MTT), U343 and U87MG, compared with Peptide 5-2C [9]: inhibited the growth of the glioblastoma cell lines and efficiently induced apoptosis, similarly to Peptide 5-2C | relative viability (MTT), HCT116 and HT29, compared with Peptide 5-2C [10]: inhibited the growth of the glioblastoma cell lines and efficiently induced apoptosis, similarly to Peptide 5-2C | relative viability (MTT), 293T and HepG2, compared with Peptide 5-2C [11]: inhibited the growth of the human embryonic kidney cancer cell line and liver cancer cell line and efficiently induced apoptosis, similarly to Peptide 5-2C | relative viability (MTT), U937, Jurkat, HL60, HEL, compared with Peptide 5-2C [12]: inhibited the growth of the human embryonic kidney cancer cell line and the liver cancer cell line and efficiently induced apoptosis, similarly to Peptide 5-2C | growth inhibition and apoptosis induction of normal control cell lines (IC50 calculation) [13]: did not substantially affect the growth inhibition of the normal control cell lines and the induction of apoptosis | relative viability (MTT), MCF10A and BEAS2B, compared with Peptide 5-2C [13]: did not affect the growth of the mammary epithelial cell line and the lung epithelial cell line and apoptosis, similarly to Peptide 5-2C
